According to US4328334A, “11-Aza-10-deoxo-10-dihydroerythromycin A and derivatives thereof as well as a process for their preparation” (PLIVA Pharmaceutical and Chemical Works, priority 1979, dated 1982):
Converted amounts (≈) assume the structure as drawn. Where two headings read alike, the source gives them in different places.

Tests used:
[1] = system: Streptococcus faecalis ATCC 8043; assay: in vitro minimum inhibitory concentration, Streptococcus faecalis ATCC 8043; type: cell-based; conditions: Enterococcus faecalis
[2] = system: Staphylococcus epidermidis ATCC 12228; assay: in vitro minimum inhibitory concentration, Staphylococcus epidermidis ATCC 12228; type: cell-based
[3] = system: Staphylococcus aureus ATCC 6538-P; assay: in vitro minimum inhibitory concentration, Staphylococcus aureus ATCC 6538-P; type: cell-based
[4] = system: Micrococcus flavus ATCC 10240; assay: in vitro minimum inhibitory concentration, Micrococcus flavus ATCC 10240; type: cell-based
Sarcina lutea ATCC 9341 = assay: in vitro minimum inhibitory concentration, Sarcina lutea ATCC 9341; type: cell-based; conditions: Micrococcus luteus, ATCC9341, read-out: minimum inhibitory concentrations (MIC)
[5] = system: Bacillus cereus var. mycoides ATCC 11778; assay: microbe, parasite or virus in culture; type: cell-based; conditions: ATCC11778, read-out: minimum inhibitory concentrations (MIC)
[6] = system: Bacillus subtilis ATCC 6633; assay: in vitro minimum inhibitory concentration, Bacillus subtilis ATCC 6633; type: cell-based
[7] = system: Corynebacterium xerosis NCTC 9755; assay: in vitro minimum inhibitory concentration, Corynebacterium xerosis NCTC 9755; type: cell-based
[8] = system: Brucella bronchiseptica ATCC 4617; assay: microbe, parasite or virus in culture; type: cell-based; conditions: Bordetella bronchiseptica, ATCC4617, read-out: minimum inhibitory concentrations (MIC)
[9] = system: Pseudomonas aeruginosa NCTC 10490; assay: in vitro minimum inhibitory concentration, Pseudomonas aeruginosa NCTC 10490; type: cell-based
[10] = system: Klebsiella pneumoniae ATCC 10031; assay: in vitro minimum inhibitory concentration, Klebsiella pneumoniae ATCC 10031; type: cell-based
[11] = system: Escherichia coli ATCC 10536; assay: in vitro minimum inhibitory concentration, Escherichia coli ATCC 10536; type: cell-based; conditions: ATCC10536, read-out: minimum inhibitory concentrations (MIC)
[12] = system: Shigella flexneri II-1819/C; assay: in vitro minimum inhibitory concentration, Shigella flexneri II-1819/C; type: cell-based; conditions: II1819/C, read-out: minimum inhibitory concentrations (MIC)
Experimental: In order to examine the antibacterial action, some new compounds were tested in vitro on a series of gram-positive and gram-negative micro-organisms. The results are shown in Table 1 as minimum inhibitory concentrations (MIC) in mcg/ml in comparision with erythromycin A erythromycin A oxime.

Salmonella panama = assay: in vitro minimum inhibitory concentration, Salmonella panama; type: cell-based; conditions: Salmonella enterica, read-out: minimum inhibitory concentrations (MIC)
[13] = system: Staphylococcus aureus ATCC 6538-P; assay: stability in acid medium: MIC after exposure to 1 N HCl; type: cell-based; conditions: ATCC6538, pH 1.2, Staphylococcus aureus ATCC 6538-P
[14] = acute i.v. toxicity in albino mice (Litchfield-Wilcoxon); conditions: mouse, in vivo, iv; acute i.v., albino mice
[15] = pKb in dimethyl formamide-water; type: physicochemical; conditions: dmf (66% v/v)-water; dimethyl formamide (66% v/v)-water
[16] = ATCC8043, in vitro, Streptococcus faecalis ATCC 8043, read-out: minimum inhibitory concentrations (MIC)
[17] = ATCC12228, in vitro, Staphylococcus epidermidis ATCC 12228, read-out: minimum inhibitory concentrations (MIC)
[18] = ATCC6538, in vitro, Staphylococcus aureus ATCC 6538-P, read-out: minimum inhibitory concentrations (MIC)
[19] = ATCC10240, in vitro, Micrococcus flavus ATCC 10240, read-out: minimum inhibitory concentrations (MIC)
[20] = ATCC6633, in vitro, Bacillus subtilis ATCC 6633, read-out: minimum inhibitory concentrations (MIC)
[21] = exposure time 1/2 hour, 1 N HCl

CC[C@H]1OC(=O)[C@H](C)[C@@H](O[C@H]2C[C@@](C)(OC)[C@@H](O)[C@H](C)O2)[C@H](C)[C@@H](O[C@@H]2O[C@H](C)C[C@H](N(C)C)[C@H]2O)[C@](C)(O)C[C@@H](C)CN(S(=O)(=O)c2ccc(C)cc2)[C@H](C)[C@@H](O)[C@]1(C)O [Compound VIII, N-(4-methyl-benzenesulfonyl)-11-aza-10-deoxo-10-dihydroerythromycin A]
MIC [1, 16]: 20 µg/mL (≈ 22.5 µM) | MIC [2, 17]: 100 µg/mL (≈ 112 µM) | MIC [3, 18]: 100 µg/mL (≈ 112 µM) | MIC [4, 19]: 20 µg/mL (≈ 22.5 µM) | MIC (Sarcina lutea ATCC 9341): 50 µg/mL (≈ 56.2 µM) | MIC [5]: 50 µg/mL (≈ 56.2 µM) | MIC [6, 20]: 100 µg/mL (≈ 112 µM)

CC[C@H]1OC(=O)[C@H](C)[C@@H](O[C@H]2C[C@@](C)(OC)[C@@H](O)[C@H](C)O2)[C@H](C)[C@@H](O[C@@H]2O[C@H](C)C[C@H](N(C)C)[C@H]2O)[C@](C)(O)C[C@@H](C)C(=O)[C@H](C)[C@@H](O)[C@]1(C)O [E, erythromycin A]
MIC ([1]; ATCC8043, read-out: minimum inhibitory concentrations (MIC)): 0.05 µg/mL (≈ 0.0681 µM) | MIC ([2]; Staphylococcus epidermidis, ATCC12228, read-out: minimum inhibitory concentrations (MIC)): 0.1 µg/mL (≈ 0.136 µM) | MIC ([3]; Staphylococcus aureus, ATCC6538, read-out: minimum inhibitory concentrations (MIC)): 0.5 µg/mL (≈ 0.681 µM) | MIC ([4]; Micrococcus flavus, ATCC10240, read-out: minimum inhibitory concentrations (MIC)): 0.05 µg/mL (≈ 0.0681 µM) | MIC (Sarcina lutea ATCC 9341): 0.05 µg/mL (≈ 0.0681 µM) | MIC [5]: 0.1 µg/mL (≈ 0.136 µM) | MIC ([6]; Bacillus subtilis, ATCC6633, read-out: minimum inhibitory concentrations (MIC)): 0.05 µg/mL (≈ 0.0681 µM) | MIC ([7]; Corynebacterium xerosis, NCTC9755, read-out: minimum inhibitory concentrations (MIC)): 0.1 µg/mL (≈ 0.136 µM) | MIC [8]: 1 µg/mL (≈ 1.36 µM) | MIC ([9]; Pseudomonas aeruginosa, NCTC10490, read-out: minimum inhibitory concentrations (MIC)): 50 µg/mL (≈ 68.1 µM) | MIC ([10]; Klebsiella pneumoniae, ATCC10031, read-out: minimum inhibitory concentrations (MIC)): 5 µg/mL (≈ 6.81 µM) | MIC [11]: 25 µg/mL (≈ 34.1 µM) | MIC [12]: 25 µg/mL (≈ 34.1 µM) | MIC (Salmonella panama): 50 µg/mL (≈ 68.1 µM) | MIC ([13]; exposure time 0 hours): 0.5 µg/mL (≈ 0.681 µM) | MIC [13, 21]: 7.5 µg/mL (≈ 10.2 µM) | MIC ([13]; exposure time 1 hour, 1 N HCl): 10 µg/mL (≈ 13.6 µM) | MIC ([13]; exposure time 2 hours, 1 N HCl): 10 µg/mL (≈ 13.6 µM) | MIC ([13]; exposure time 3 hours, 1 N HCl): 10 µg/mL (≈ 13.6 µM) | MIC ([13]; exposure time 6 hours, 1 N HCl): 20 µg/mL (≈ 27.3 µM)

CC[C@H]1OC(=O)[C@H](C)[C@@H](O[C@H]2C[C@@](C)(OC)[C@@H](O)[C@H](C)O2)[C@H](C)[C@@H](O[C@@H]2O[C@H](C)C[C@H](N(C)C)[C@H]2O)[C@](C)(O)C[C@@H](C)C(=NO)[C@H](C)[C@@H](O)[C@]1(C)O [EO, erythromycin A oxime, reference compound]
MIC [1, 16]: 0.05 µg/mL (≈ 0.0668 µM) | MIC [2, 17]: 0.1 µg/mL (≈ 0.134 µM) | MIC [3, 18]: 0.5 µg/mL (≈ 0.668 µM) | MIC [4, 19]: 0.1 µg/mL (≈ 0.134 µM) | MIC (Sarcina lutea ATCC 9341): 0.05 µg/mL (≈ 0.0668 µM) | MIC [5]: 0.1 µg/mL (≈ 0.134 µM) | MIC [6, 20]: 0.1 µg/mL (≈ 0.134 µM) | MIC ([7]; NCTC9755, in vitro, Corynebacterium xerosis NCTC 9755, read-out: minimum inhibitory concentrations (MIC)): 0.1 µg/mL (≈ 0.134 µM) | MIC [8]: 1 µg/mL (≈ 1.34 µM) | MIC ([9]; NCTC10490, in vitro, Pseudomonas aeruginosa NCTC 10490, read-out: minimum inhibitory concentrations (MIC)): 50 µg/mL (≈ 66.8 µM) | MIC ([10]; ATCC10031, in vitro, Klebsiella pneumoniae ATCC 10031, read-out: minimum inhibitory concentrations (MIC)): 5 µg/mL (≈ 6.68 µM) | MIC [11]: 25 µg/mL (≈ 33.4 µM) | MIC [12]: 50 µg/mL (≈ 66.8 µM) | MIC (Salmonella panama; in vitro, Salmonella panama): 50 µg/mL (≈ 66.8 µM) | LD50 [14]: 74 mg/kg | MIC ([13]; exposure time 0 hours): 0.1 µg/mL (≈ 0.134 µM) | MIC [13, 21]: 0.1 µg/mL (≈ 0.134 µM) | MIC ([13]; exposure time 1 hour, 1 N HCl): 0.1 µg/mL (≈ 0.134 µM) | MIC ([13]; exposure time 2 hours, 1 N HCl): 0.5 µg/mL (≈ 0.668 µM) | MIC ([13]; exposure time 3 hours, 1 N HCl): 0.5 µg/mL (≈ 0.668 µM) | MIC ([13]; exposure time 6 hours, 1 N HCl): 0.5 µg/mL (≈ 0.668 µM)

CC[C@H]1OC(=O)[C@H](C)[C@@H](O[C@H]2C[C@@](C)(OC)[C@@H](O)[C@H](C)O2)[C@H](C)[C@@H](O[C@@H]2O[C@H](C)C[C@H](N(C)C)[C@H]2OC(C)=O)[C@](C)(O)C[C@@H](C)CN(C(C)=O)[C@H](C)[C@@H](O)[C@]1(C)O [Example 5, 2',N-diacetyl-11-aza-10-deoxo-10-dihydroerythromycin A]
pKa [15]: 6.7

CCC(=O)O[C@H]1[C@H](O[C@@H]2[C@@H](C)[C@H](O[C@H]3C[C@@](C)(OC)[C@@H](O)[C@H](C)O3)[C@@H](C)C(=O)O[C@H](CC)[C@@](C)(O)[C@H](O)[C@@H](C)N(C(=O)CC)C[C@H](C)C[C@@]2(C)O)O[C@H](C)C[C@@H]1N(C)C [Example 6, 2',N-dipropionyl-11-aza-10-deoxo-10-dihydroerythromycin A]
pKa [15]: 6.7
